Entries after “also recorded” stand apart in the source; their conditions may differ. Like-named read-outs stand apart in the source and are kept apart here.
Columns and labels:
[1] = WST-1 cytotoxicity assay; conditions: African green monkey, BS-C-1 cells
[2] = tested on: BS-C-1 cells; experiment: WST-1 cytotoxicity assay; conditions: for tox 20 h TC50 / tox 72 h TC50 / tox 120 h TC50: Table 6; for CC50: read-out: Cytotoxicity 20 h CC50, Table 4; for tox 20 h TC50 / CC50: 20 h
[3] = target: vaccinia virus DNA synthesis (viral DNA polymerase and its associated factors) (Vaccinia virus, UniProt P06856); type: biochemical
[4] = tested on: vaccinia virus WR; experiment: microbe, parasite or virus in culture; type: cell-based; conditions: for EC50: Orthopoxvirus vaccinia
[5] = tested on: vaccinia virus WR; experiment: microbe, parasite or virus in culture; type: cell-based; conditions: Orthopoxvirus vaccinia
[6] = tested on: vaccinia virus WR; type: cell-based
[7] = Solubility in cell growth medium by light scattering; conditions: concentrations of the activity assays
Protocol: These 16 compounds were tested for cell protection and cytotoxicity over longer times (48 h and 72 h). […] The solubility of the 16 compounds was verified in cell growth medium over the range of concentrations used in the activity assays.

[8] = target: vaccinia triad (A20, D4, E9) (Vaccinia virus (strain Western Reserve) (VACV) (Vaccinia virus (strain WR)), UniProt P06856); type: biochemical
[9] = tested on: BSC-1 cells; conditions: 100 μM
[10] = target: triad (A20, D4, E9) (Vaccinia virus (strain Western Reserve) (VACV) (Vaccinia virus (strain WR)), UniProt P06856); type: biochemical
[11] = tested on: vaccinia virus; type: cell-based
[12] = in vitro; conditions: African green monkey
[13] = target: vaccinia E9 polymerase (Vaccinia virus (strain Western Reserve) (VACV) (Vaccinia virus (strain WR)), UniProt P06856); type: biochemical
[14] = tested on: vaccinia virus; experiment: microbe, parasite or virus in culture; type: cell-based; conditions: Orthopoxvirus vaccinia; for inhibition at 100 µM: BSC-1, 1 h, read-out: Inhibition of plaques
[15] = aCella-TOX GAPDH release cytotoxicity assay (viridicatumtoxin study); conditions: African green monkey, BSC-1 cells
[16] = tested on: vaccinia virus; experiment: microbe, parasite or virus in culture; conditions: Orthopoxvirus vaccinia, BSC-1, 16 h, read-out: Plaque IC50
[17] = tested on: BSC-1 cells; experiment: aCella-TOX GAPDH release cytotoxicity assay (viridicatumtoxin study); conditions: cells exposed to 200 μM
[18] = tested on: vaccinia early E3 protein; type: cell-based, vaccinia virus
[19] = tested on: vaccinia late L1 protein; type: cell-based, vaccinia virus
[20] = tested on: vaccinia virus; conditions: African green monkey
[21] = tested on: vaccinia early gene E3 mRNA; type: cell-based, vaccinia virus
[22] = tested on: BSC-1 cells; experiment: Cell viability at plaque IC50, MTT assay; conditions: at plaque IC50 (1.6 μM), 16 h
Protocol: (§1) The cell viability at the plaque IC50 value was performed using two independent methods, cell counting and MTT assay. For the cell counting method, cells were incubated overnight at 37° C. to sub-confluency in 48-well plates. The compounds dissolved in DMSO, were further diluted in media to a final concentration required to achieve the plaque IC50 value. The cells were incubated with the compounds for 24 hrs. The media was removed, the cells trypsinized and stained with tryphan blue, and counted. The MTT assay was also used to confirm cell viability at the plaque IC50. Cells were seeded at 1.5×10^4 cells/well in a 96-well plate and incubated overnight at 37° C. at 5% CO2. […] Each well received 20 μL of the MTT solution (5 mg MTT/mL PBS) and the plate was rocked for 5 min. The plates were incubated for an additional 5 h to metabolize MTT, after which the media was removed, and the plates were air dried. To resuspend the formazan, the end product of the MTT assay, 200 μL of DMSO was added to each well and the plates were rocked for 5-10 min. Absorbance was read at 560 nm.

[23] = tested on: vaccinia late gene F9 mRNA; type: cell-based, vaccinia virus
[24] = target: vaccinia E9 DNA polymerase (Vaccinia virus (strain Western Reserve) (VACV) (Vaccinia virus (strain WR)), UniProt P06856); experiment: biochemical
[25] = tested on: BSC-1 cells; experiment: Cell viability at plaque IC50, cell counting; conditions: at plaque IC50 (1.6 μM), 24 hrs
Protocol: as §1

[26] = read-out: DNA Synthesis Inhibition IC50
[27] = 20 h, read-out: Cell Protection 20 h EC50
[28] = BSC-1, 20 h, read-out: cell prot EC50
[29] = 20 h, read-out: Plaque Reduction 20 h EC50
[30] = BSC-1, 20 h, read-out: plaque red EC50

## Cc1cc(OC(=O)c2ccco2)nc(SCc2c(Cl)cccc2Cl)n1 [Compound 8]
[1]
  CC50 at 20 h: > 200 µM
[2]
  tox 20 h TC50: >100 µM
  tox 72 h TC50: >100 µM
  tox 120 h TC50: >100 µM
[3]; [26]
  IC50: 52 µM
[3]; read-out: DNA synth IC50
  IC50: 52 µM
[4]
  Selectivity Index SI: >2
  selectivity index: >2
[4]; [27]
  EC50: 100 µM
[4]; [28]
  EC50: 100 µM
[5]; [29]
  EC50: 75 µM
[5]; [30]
  EC50: 75 µM
[6]
  Effect of dsDNA: No
  trapped by dsDNA: no
[7]
  Solubility in cell growth medium: just slightly insoluble at the EC50

## CCS(=O)(=O)N1CCN=C1SCc1ccc(Cl)cc1Cl [Compound 10]
[1]
  CC50 at 120 h: 25 µM
[2]
  tox 20 h TC50: 166 µM
  CC50: 166 µM
[3]; [26]
  IC50: 188 µM
[3]; read-out: DNA synth IC50
  IC50: 188 µM
[4]; [27]
  EC50: 90 µM
[4]; [28]
  EC50: 90 µM
[5]; [29]
  EC50: 25 µM
[5]; [30]
  EC50: 25 µM
[6]
  Effect of dsDNA: No
  trapped by dsDNA: no
[7]
  Solubility in cell growth medium: just slightly insoluble at the EC50

## N=C1S/C(=C/c2ccco2)C(=O)N1c1nccs1 [Compound 12]
[1]
  CC50 at 72 h: > 50 µM
[2]
  tox 20 h TC50: >100 µM
  tox 72 h TC50: >100 µM
  tox 120 h TC50: 50 µM
  CC50: > 100 µM
[3]; [26]
  IC50: 32 µM
[3]; read-out: DNA synth IC50
  IC50: 32 µM
[4]
  Selectivity Index SI: >1.2
  selectivity index: >1.2
[4]; [27]
  EC50: 80 µM
[4]; [28]
  EC50: 80 µM
[5]; [29]
  EC50: 75 µM
[5]; [30]
  EC50: 75 µM
[6]
  Effect of dsDNA: No
  trapped by dsDNA: no
[7]
  Solubility in cell growth medium: just slightly insoluble at the EC50

## Oc1ccc(Cl)cc1Sc1cc(Cl)ccc1O [NSC 55636, 2,2′-thiobis(4-chlorophenol)]
[8]
  Effect on synthesis of M13 DNA: blocked by increasing concentrations
[9]
  Cell Cytotoxicity: 14%
[9]; listed as 55636
  Cell Cytotoxicity: 14%
[10]
  Effect on DNA synthesis by the triad on the distal template: also blocked the distal template
[11]
  Blocking the replication of vaccinia virus in cells: effective in blocking the replication of vaccinia virus in cells
[12]
  CC50: > 200 µM
[13]
  Effect on E9 polymerase activity on the uniform template: prevented E9 from incorporating nucleotides on the uniform template; also recorded: inhibited the catalytic activity of E9 DNA polymerase; also recorded: blocked polymerase activity
  Targeted Activity (% Inhibition): Polymerase: Polymerase (74%)
[14]
  inhibition at 100 µM: 95%
[14]; BSC-1, read-out: EC50 (concentration at which compound reduced plaques by 50%)
  EC50: 5 µM

## CN(C)C1C(O)=C(C(N)=O)C(=O)C2(O)C(O)=C3C(=O)c4c(O)cccc4C(C)(O)C3CC12.CS(=O)(=O)O (stereo not drawn) [NSC 69343, 4-(dimethylamino)-3,6,10,12,12a-pentahydroxy-6-methyl-1,11-dioxo-1,4,4a,5,5a,6,11,12a-octahydrotetracene-2-carboxamide methanesulfonate, reference compound]
[15]
  CC50: > 200 µM
[16]
  IC50: > 200 µM
[9]; methanesulfonate
  Cell Cytotoxicity: 17%
[11]
  Blocking the replication of vaccinia virus in cells: effective in blocking the replication of vaccinia virus in cells
[14]
  inhibition at 100 µM: 40%

## O=C1CSC(=S)N1/N=C/c1ccc(Cl)c([N+](=O)[O-])c1 [NSC 124808]
[8]
  Effect on synthesis of M13 DNA: blocked by increasing concentrations
[9]
  Cell Cytotoxicity: 21%
[10]
  Effect on DNA synthesis by the triad on the distal template: prevented DNA synthesis by the triad on the distal template; also recorded: blocked incorporation on the distal template
  Targeted Activity (% Inhibition): Processivity: Processivity (62%)
[13]
  Effect on E9 polymerase activity on the uniform template: not on the uniform template; also recorded: minimal effects
[14]
  inhibition at 100 µM: 36%

## COc1cc(O)c2c(O)c3c(c4c2c1[C@]1(C4)C(C)=CCCC1(C)C)[C@H](O)[C@@]1(O)CC(O)=C(C(N)=O)C(=O)[C@@]1(O)C3=O [Viridicatumtoxin, viridicatumtoxin]
[15]
  CC50: > 200 µM
[17]
  Cytotoxicity at highest exposure: not cytotoxic
[18]
  Early E3 protein level: no significant difference in the levels of E3
[16]
  IC50: 1.6 µM
[19]
  Late L1 protein level: significantly decreased
[20]
  Concentration at which the cells began to detach: ≥ 100 µM
[21]
  Early E3 mRNA production: maximum at 3 h.p.i. and dropped back to low levels by 5 h.p.i.
[22]
  % cell viability on plaque IC50, MTT: 83 ± 16%
[22]; listed as viridicatumtoxin
  % cell viability on plaque IC50, MTT: about 85%
[23]
  Late F9 mRNA expression: only a marginal increase in F9 mRNA expression by 5 h.p.i.
[24]
  IC50: 63 µM
[11]
  Blocking the replication of vaccinia virus in cells: particularly effective
[25]
  % cell viability on plaque IC50, Cell count: 92 ± 23%
[25]; listed as viridicatumtoxin
  % cell viability on plaque IC50, Cell count: About 90%
